Assays:
[1] = system: influenza virus A/Taiwan/1/86 (H1N1); assay: organism not typed; type: cell-based; settings: 72 h; CPE in infected MDCK cells, ATP levels (ATPlite), three days post-virus exposure
in vitro = settings: dog

| Compound | IC50 [1] | CC50 at 3 days (in vitro) | melting point |
| --- | --- | --- | --- |
| Cc1nc(-c2c[nH]c3c(F)cc(F)cc23)nc(N[C@H]2CCC[C@@H](Nc3nc(Cl)nc4c3CCC4)C2)c1F [Compound 38] | 1 nM | > 25000 nM | – |
| Cc1cnc(Cl)nc1N[C@@H]1CCC[C@H](Nc2nc(-c3c[nH]c4c(F)cc(F)cc34)nc(C)c2F)C1 [Compound 44] | 10 nM | > 25000 nM | 185.4 °C |
| Cc1nc(-c2c[nH]c3c(F)cc(F)cc23)nc(N[C@H]2CCC[C@@H](Nc3nc(Cl)nc4c3CCCC4)C2)c1F [Compound 37] | 11 nM | > 25000 nM | – |
| Cc1cc(N[C@@H]2CCC[C@H](Nc3nc(-c4c[nH]c5c(F)cc(F)cc45)nc(C)c3F)C2)ncn1 [Compound 46] | 2 nM | > 25000 nM | – |
| Cc1cc(O[C@@H]2CCC[C@H](Nc3nc(-c4c[nH]c5c(F)cc(F)cc45)nc(C)c3F)C2)ncn1 [Compound 71] | 13 nM | 2200 nM | – |
| Fc1cc(F)c2[nH]cc(-c3ncc(F)c(N[C@H]4CCC[C@@H](Nc5ccncn5)C4)n3)c2c1 [Compound 18] | 8 nM | 8340 nM | 166.5 °C |
| N#Cc1nccc(N[C@@H]2CCC[C@H](Nc3nc(-c4c[nH]c5c(F)cc(F)cc45)ncc3F)C2)n1 [Compound 14] | 8 nM | 3150 nM | 215.6 °C |
| COc1nccc(N[C@@H]2CCC[C@H](Nc3nc(-c4c[nH]c5c(F)cc(F)cc45)ncc3F)C2)n1 [Compound 15] | 75 nM | 3190 nM | 139.6 °C |
| Cc1cc(N[C@@H]2CCC[C@H](Nc3nc(-c4c[nH]c5c(F)cc(F)cc45)nc(C(=O)O)c3F)C2)nc(Cl)n1 [Compound 54] | 61 nM | > 25000 nM | – |
| Cc1ccnc(N[C@@H]2CCC[C@H](Nc3nc(-c4c[nH]c5ncncc45)nc(C)c3F)C2)n1 [Compound 65] | 7 nM | > 25000 nM | – |
| Fc1cc(F)c2[nH]cc(-c3ncc(F)c(N[C@H]4CCC[C@@H](Nc5ncncc5F)C4)n3)c2c1 [Compound 19] | 140 nM | > 25000 nM | 215.6 °C |
| Cc1nc(-c2c[nH]c3c(F)cc(F)cc23)nc(N[C@H]2CCC[C@@H](Nc3nc(Cl)nc4sccc34)C2)c1F [Compound 39] | 3 nM | > 25000 nM | – |
| Cc1nc(-c2c[nH]c3c(F)cc(F)cc23)nc(N[C@H]2CCC[C@@H](Nc3ncc(C4CC4)c(Cl)n3)C2)c1F [Compound 41] | 39 nM | > 25000 nM | 222.7 °C |
| Cc1cc(N[C@@H]2CCC[C@H](Nc3nc(-c4c[nH]c5c(F)cc(F)cc45)ncc3F)C2)ncn1 [Compound 11] | 8 nM | 5970 nM | – |
| Cc1nc(-c2c[nH]c3c(F)cc(F)cc23)nc(N[C@H]2CCC[C@@H](Nc3ncnc4nc[nH]c34)C2)c1F [Compound 47] | 0.7 nM | 11000 nM | – |
| Fc1cc(F)c2[nH]cc(-c3ncc(F)c(N[C@H]4CCC[C@@H](Nc5ccnc(Cl)n5)C4)n3)c2c1 [Compound 16] | 8 nM | 2170 nM | – |
| Cc1cc(N[C@@H]2CCC[C@H](Nc3nc(-c4c[nH]c5ncncc45)nc(C)c3F)C2)ncn1 [Compound 64] | 8 nM | > 25000 nM | – |
| Cc1nc(-c2c[nH]c3c(F)cc(F)cc23)nc(N[C@H]2CCC[C@@H](Nc3nc(O)ncc3C#N)C2)c1F [Compound 43] | 0.6 nM | > 25000 nM | – |
| Nc1nc(N[C@H]2CCC[C@@H](Nc3nc(-c4c[nH]c5c(F)cc(F)cc45)ncc3F)C2)c2ccccc2n1 [Compound 13] | 20 nM | 11600 nM | – |
| Cc1nc(-c2c[nH]c3c(F)cc(F)cc23)nc(N[C@H]2CCC[C@@H](Nc3nc(Cl)ncc3C3CC3)C2)c1F [Compound 42] | 41 nM | > 25000 nM | – |
| Cc1nccc(N[C@H]2CCC[C@@H](Nc3nc(-c4c[nH]c5c(F)cc(F)cc45)ncc3F)C2)n1 [Compound 10] | 20 nM | 2880 nM | – |
| Nc1ncc(F)c(N[C@@H]2CCC[C@H](Nc3nc(-c4c[nH]c5c(F)cc(F)cc45)ncc3F)C2)n1 [Compound 12] | 6 nM | > 1000 nM | – |
| Cc1nc(Cl)nc(N[C@@H]2CCC[C@H](Nc3nc(-c4c[nH]c5c(F)cc(F)cc45)nc(C)c3F)C2)c1F [Compound 36] | 2 nM | > 25000 nM | – |
| COc1cnc(Cl)nc1N[C@@H]1CCC[C@H](Nc2nc(-c3c[nH]c4c(F)cc(F)cc34)nc(C)c2F)C1 [Compound 45] | 36 nM | > 25000 nM | 246.6 °C |
| Cc1nc(-c2c[nH]c3c(F)cc(F)cc23)nc(N[C@H]2CCC[C@@H](Nc3cncc(Cl)n3)C2)c1F [Compound 40] | 24 nM | > 25000 nM | 201.8 °C |
| Cc1nc(-c2c[nH]c3c(F)cc(F)cc23)nc(N[C@@H]2CCC[C@H](Nc3cc(C(F)(F)F)nc(Cl)n3)C2)c1F [Compound 35] | 30 nM | 890 nM | – |

Reference: patent US11117887B2, “Aryl substituted pyrimidines for use in influenza virus infection” (Janssen Sciences Ireland Unlimited Company, priority 2016, dated 2021)
